The target of data set [1] is human androgen receptor (hAR) (Homo sapiens, UniProt P10275). Kind of data set: Functional response test: hAR transactivation (luciferase reporter) in HALP2 cells. In kind it is cell-based. In short, it runs like this:
(§1)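 HALP2 cells are HeLa cells stably transfected with CMV-driven hAR and a probasin ARE-luciferase reporter. They were seeded 24 h ahead, then exposed to compounds for 20 hours at 37° C in phenol red-free DMEM with 5% desteroided serum. Luciferase luminescence was measured after lysis; for antagonist mode, compounds were tested against increasing DHT concentrations.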

Data set [2] deals with castrated C57/B16J male mice. Kind of data set: Model of osteoporosis in male mice (trabecular BMD of tibia). In kind it is in vivo. The settings on record: Mus musculus, sc, 672 h, ORX mice, 30 mg/kg subcutaneously daily, day 1 to 28, ORX = 0%, SHAM = 100%, read-out: efficacy in protecting mineral bone density. How it is done:
C57/B16J male mice aged 12 weeks and weighing approximately 20-25 g (Charles River, Les Oncins, FRANCE) were operated on as described above with regard to the rats. Castration mimicked the bone loss caused by androgen deficit. The aim of the study is to evaluate the capacity of the compounds to preserve and/or increase the bone mass. This is evaluated by measuring the bone mineral density (BMD). This model has previously been documented by Sims et al. 2003 J. Clin. Invest. 111(9):1319-27.
The animals were separated randomly into various groups and were kept in an environment at 22±2° C. with an alternating day/night cycle of 12 hours and ad libitum access to food and drink.
The tested compounds were administered from post-surgery day 1 and until day 28 preceding sacrifice (day 29). The mice were treated daily under the conditions defined below: • 1. SHAM control group: Vehicle (10/90 ethanol/corn oil mixture) administered subcutaneously. • 2. ORX control group: Vehicle (10/90 ethanol/corn oil mixture) administered subcutaneously. • 3. Treated ORX group: The tested compounds were administered individually subcutaneously in the vehicle described above, in a dose of 30 mg/kg.
During necropsy, the mice were first weighed then decapitated. The two hindlimbs were then carefully disarticulated at the femoral neck. The right hindlimb was frozen at −20° C. Densitometric quantitative analysis was performed on the trabecular portion of the tibia proximal metaphysis using a tomo densitometer (Stratec SA+, Hologic, Norland).
The average of the trabecular BMD of the mice in the ORX control group was defined as 0%. The average of the trabecular BMD of the mice in the SHAM control group was defined as 100%. The efficacy of each product as a percentage was calculated using the formula: (BMDtreated−BMDORX)/(BMDSHAM−BMDORX)×100
A subsequent ANOVA test was used for statistical analysis to identify the differences between groups.

The target of data set [3] is T1, human androgen receptor (hAR) (Homo sapiens, UniProt P10275).
T1 sequence (P10275 1-920): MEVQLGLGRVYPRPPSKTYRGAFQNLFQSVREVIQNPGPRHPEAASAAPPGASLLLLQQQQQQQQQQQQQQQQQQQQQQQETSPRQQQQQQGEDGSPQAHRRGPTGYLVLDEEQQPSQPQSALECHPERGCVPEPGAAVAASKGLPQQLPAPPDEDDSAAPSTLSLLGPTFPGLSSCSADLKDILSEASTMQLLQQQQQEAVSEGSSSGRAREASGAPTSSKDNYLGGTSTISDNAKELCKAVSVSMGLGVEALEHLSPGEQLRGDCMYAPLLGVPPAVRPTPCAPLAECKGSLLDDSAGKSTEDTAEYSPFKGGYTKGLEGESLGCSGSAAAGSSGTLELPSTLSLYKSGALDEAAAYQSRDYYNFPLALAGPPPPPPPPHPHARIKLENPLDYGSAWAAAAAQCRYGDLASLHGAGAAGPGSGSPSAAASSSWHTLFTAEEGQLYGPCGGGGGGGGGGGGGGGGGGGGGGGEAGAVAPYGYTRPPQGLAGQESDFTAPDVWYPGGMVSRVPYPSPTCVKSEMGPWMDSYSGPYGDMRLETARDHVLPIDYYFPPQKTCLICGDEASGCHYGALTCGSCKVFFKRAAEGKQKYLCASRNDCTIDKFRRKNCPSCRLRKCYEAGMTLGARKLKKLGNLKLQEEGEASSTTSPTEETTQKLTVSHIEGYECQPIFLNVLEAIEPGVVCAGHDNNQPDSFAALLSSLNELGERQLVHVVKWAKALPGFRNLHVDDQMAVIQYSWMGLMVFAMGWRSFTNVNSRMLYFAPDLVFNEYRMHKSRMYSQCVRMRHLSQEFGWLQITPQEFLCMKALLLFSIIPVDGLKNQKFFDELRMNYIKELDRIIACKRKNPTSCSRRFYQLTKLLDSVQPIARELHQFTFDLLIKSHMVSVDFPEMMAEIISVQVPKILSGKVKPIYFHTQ
Description: Functional response test: hAR transactivation (luciferase reporter) in HALP2 cells. In kind it is cell-based. The procedure, abridged: as §1
This is another data set of the same source.

In data set [4] the test system is castrated immature young rats. Kind of data set: Adapted model of Hershberger's test (levator ani and ventral prostate weight). In kind it is in vivo, Sprague Dawley rats. The following applies: Rattus norvegicus, po, 96 h. How it is done: The selective modulating activity of the androgen receptor was tested in a model of castrated immature young rats. This model, which is widely recognised for evaluating the anabolic effects of androgen compounds on the muscles and on the genitalia, has been described by Hershberger et al. 1953 Proc. Soc. Expt. Biol. Med. 83:175.
The method is based on the measurement of the well-known effects of androgens on the growth of the muscles and the accessory male sex organs in animals, and also in men. The consequences of castration appear in the form of a rapid involution and atrophy of the prostate and the seminal vesicles and of the anus-lifting muscle (levator ani). This effect may be completely compensated by an exogeneous administration of androgen, in particular of testosterone. The model is thus used to determine the capacity of the tested molecules to maintain the weight of the accessory sex and muscle organs in immature castrated rats, and therefore their androgenic efficacy.
Immature young Sprague Dawley rats (4 to 5 weeks old) weighing approximately 140-160 g (Charles River, Les Oncins, FRANCE) were distributed randomly in various groups and were kept in an environment at 22±2° C. with an alternating day/night cycle of 12 hours and ad libitum access to food and drink.
On day 0, that is, seven days before commencement of the first treatment, the rats were weighed individually then anaesthetised with an intraperitoneal dose of Ketamine/xylazine (85/15 mg/kg, approximately 2 ml/kg). Each animal was then placed on a sterile field and the abdomen and the scrotum were disinfected with Betadine and 70% alcohol. In the case of the orchidectomised control animals (ORX), the testicles were removed via an incision in the middle of the scrotum. A sterile suture was then made to ligature the supra-testicular portion of the tissue prior to surgical section of each testicle. The groups of animals to be treated by the tested compounds were operated on in an identical manner. In the case of the intact control animals (SHAM), the testicles were similarly extracted and reintroduced delicately to their original location. The site of surgical intervention was then sutured using sterile suture thread, and the site was disinfected again by application of Betadine. Each animal was then kept under a sterile pad until it awoke, before being returned to its cage. The animals were kept in an environment at 22±2° C. with an alternating day/night cycle of 12 hours and ad libitum access to food and drink. The animals were treated with the molecules to be tested from post-surgery day 7 and until day 10 preceding sacrifice (day 11).
The rats were split into groups and treated daily from day 7 to day 10 under the conditions defined below: • 1. SHAM control group: Vehicle (0.5% aqueous methyl cellulose) administered per os. • 2. ORX control group: Vehicle (0.5% aqueous methyl cellulose) administered per os. • 3. Treated ORX group: The tested compounds were administered individually per os in suspension in the vehicle described above, in a dose of 30 mg/kg.
After treatment for 4 successive days, the animals were decapitated using a guillotine. The levator ani and the ventral prostate were removed and weighed individually. For comparing inter-experimental data, the weight of each organ was standardised and expressed in milligrammes per 100 g of the weight of the animal (W). For each organ, the average of the standardised weights of the ORX control group was fixed by definition at 0% and the average of the standardised weights of the SHAM control group was fixed by definition at 100%. The efficacy of each product was expressed as a percentage and calculated using the following formula: (Wtreated−WORX)/(WSHAM−WORX)×100 A subsequent ANOVA test was used for statistical analysis to identify the differences between groups.

The mark [5] stands for this setting: read-out: anabolic protection efficacy with regard to levator ani.
The mark [6] stands for this setting: read-out: androgenic efficacy with regard to the prostate.

Read-outs that look alike come from different tables or passages of the source.

For `CC1(c2ccc(O)cc2)C(=O)N(c2ccc(Cl)c(Cl)c2)C(=O)N1CCF` (stereo not drawn), the EC50 in data set [1] was 8 nM.
Take `C=CCN1C(=S)N(c2ccc(C#N)c(C(F)(F)F)c2)C(=O)C1(C)c1ccc(O)cc1` (stereo not drawn) [Example 7, 4-[4-(4-hydroxyphenyl)-4-methyl-5-oxo-3-(2-propenyl)-2-thioxoimidazolidin-1-yl]-2-trifluoromethylbenzonitrile]: the inhibition in vivo at 30 mg/kg in data set [2] was in the range of 40 to 130%. For the same compound, in data set [3], the “KSchild (nM) potency” value worked out at 3.46 nM.
Consider `Cc1c(N2C(=O)N(C)C(C)(c3ccc(O)cc3)C2=O)ccc(C#N)c1Cl` (stereo not drawn) [Example 8, 2-chloro-4-[3,4-dimethyl-2,5-dioxo-4-(4-hydroxyphenyl)imidazolidin-1-yl]-3-methylbenzonitrile], for which the inhibition in vivo at 30 mg/kg in data set [2] lay in the range of 40 to 130%; in data set [4] (setting [5]), 50 to 140%; in data set [4] (setting [6]), 5 to 70%.
In turn, `CN1C(=O)N(c2ccc(Cl)c(Cl)c2)C(=O)C1(CO)c1ccc(O)cc1` (stereo not drawn) [Example 175, 1-(3,4-dichlorophenyl)-4-hydroxymethyl-4-(4-hydroxyphenyl)-3-methylimidazolidine-2,5-dione] showed a melting point of 215.6 °C. In data set [4] (ORX rats, 30 mg/kg per os, 4 successive days, ORX = 0%, SHAM = 100%, read-out: anabolic protection efficacy with regard to levator ani), the inhibition in vivo at 30 mg/kg was 50 to 140%. Further, the inhibition in vivo at 30 mg/kg in data set [4] (ORX rats, 30 mg/kg per os, 4 successive days, ventral prostate, ORX = 0%, SHAM = 100%, read-out: androgenic efficacy with regard to the prostate) lay within 5 to 70%. The EC50 in data set [3] (agonism, HALP2 cells (HeLa, hAR + ARE-luciferase), 20 hours at 37° C.) stood at 1.38 nM. Besides, the “KSchild (nM) potency” value in data set [3] (antagonism, concentration which increases the EC50 of the DHT by a factor of 2, Schild regression, HALP2 cells) is listed as 0.37 nM.
Turning to `COCN1C(=O)N(c2ccc(C#N)c(C(F)(F)F)c2)C(=O)[C@@]1(C)c1ccc(O)cc1` [Example 222.1, (R)-4-[2,5-dioxo-4-(4-hydroxyphenyl)-3-methoxymethyl-4-methylimidazolidin-1-yl]-2-trifluoromethylbenzonitrile], the melting point amounted to 97 °C. In addition, in data set [4] (setting [5]), the inhibition in vivo at 30 mg/kg is 50 to 140%. For the same compound, in data set [4] (setting [6]), the inhibition in vivo at 30 mg/kg lay in the range of 5 to 70%. In data set [3], the “KSchild (nM) potency” value is listed as 4 nM.

Usually EC50 stands for the concentration needed to bring the measured effect to its halfway point. Usually melting point stands for the temperature, or range, at which the solid turns liquid.

These data come from patent publication US8168667B2 (Galapagos NV, priority 2006, dated 2012).
